{"source": "patent US8293240B2", "about": "“Method of treating drug-resistant cancer” (The Regents of the University of Colorado, priority 2004, dated 2012)", "key": {"[1]": {"system": "A-204 human rhabdomyosarcoma cells", "experiment": "cell surface UCP2 expression on A-204 cells", "type": "cell-based", "settings": "A-204, 24, 48, & 72 hours, FIG. 26", "description": "(§1) Cell Surface Staining. Non-permeabilized cells were stained with antibodies to the cell surface receptors Fas (CD95) (Pharmingen) or with antibodies to uncoupling proteins (anti-UCP2 antibody) (Alpha Diagnostic International). Antibodies for both the isotype control and actual stain were added to the cell suspension, mixed, and then placed on ice for and incubation of 25 minutes in the dark. Subsequently the cells were centrifuged at 300×g for 5 minutes and the supernatant removed. The cells were washed one time with 100 μL of PBS/2.5% FBS and then transferred into flow cyotmetric tubes containing 500 μL of PBS/2.5% FBS for analysis.\nA204 human rhabdomyosarcoma cells were cultured at a concentration of 0.5 to 1 million cells per ml. Cells were untreated or treated with etomoxir at concentrations indicated in FIG. 24 for 24, 48, & 72 hours. Cells were harvested and analyzed by flow cytometry. Dot plots are shown in FIG. 24 as functions of live versus dead cells. […] Five thousand cells were assessed for forward scatter (FS), as a function of cell size, versus side scatter (SS), as a function of cellular granularity. […]\nCells were untreated or treated with etomoxir at the concentration indicated in FIG. 26 at the indicated concentration for 24, 48, & 72 hours. Cells were harvested, stained with fluorochrome conjugated with anti-UCP2 antibody and analyzed by flow cytometry."}, "L1210 DDP cells": {"system": "L1210 DDP cells", "experiment": "mitochondrial membrane potential (MitoTracker), L1210 DDP", "type": "cell-based", "settings": "24 hours of incubation, FIG. 11", "description": "Flow Cytometry. Cells were harvested, counted, and resuspended at 10^6 cells/100 μl of PBS containing 2.5% fetal calf serum in preparation for flow cytometric analysis. Cells were stained for intracellular H202 using 6-carboxy-2′,7′-dichlorodihydrofluorescein diacetate (DCF-DA, Molecular Probes, Eugene, Oreg.). Briefly, cells were incubated at 37° with 1 mM DCF-DA for 20 minutes, washed twice in PBS containing 2.5% fetal calf serum and analyzed flow cytometrically. Mitochondrial membrane potential was assessed using Mitotracker Red (CM-H2XROS, Molecular Probes, Eugene, Oreg.). […] The cells were incubated at 37° for 20 minutes, washed twice in PBS containing 2.5% fetal calf serum and analyzed flow cytometrically. Data were acquired on a Coulter Elite Epics or Excel flow cytometer (Coulter, Hialeah, Fla.) and analyzed with CellQuest software, (Becton Dickinson, San Jose, Calif.). […] Each sample population was classified for cell size (forward scatter) and complexity (side scatter), gated on a population of interest and evaluated using 5,000 cells. […]\nWe measured the effects of etomoxir on metabolism by measuring mitochondrial membrane potential with a fluorescent dye (Mitotracker Red, Molecular Probes, Eugene, Oreg.) which fluoresces as a function of mitochondrial potential. […]"}, "B16F1 melanoma cells [2]": {"system": "B16F1 melanoma cells", "experiment": "cell surface Fas (CD95) expression on B16F1 melanoma cells", "type": "cell-based, mouse", "settings": "48 hours", "description": "as §1\n(§2) B16F1 melanoma cells were cultured at a concentration of 0.5 to 1 million cells per ml. Cells were harvested and analyzed by flow cytometry. Dot plots are shown in FIG. 15 as functions of live versus dead cells. Each dot on the dot plot represents one cell. Five thousand cells were assessed for forward scatter (FS), as a function of cell size, versus side scatter (SS), as a function of cellular granularity. […]\nReferring to FIGS. 17 and 18, B16F1 melanoma cells of Example 12 were untreated or treated with etomoxir at the indicated concentrations for 48 hours. Cells were harvested, stained with fluorochrome conjugated anti-Fas antibody (Pharmingen) and analyzed by flow cytometry."}, "B16F1 melanoma cells [3]": {"system": "B16F1 melanoma cells", "experiment": "intracellular reactive intermediates (DCFDA) in B16F1 melanoma cells", "type": "cell-based, mouse", "settings": "B16F1, 48 hours, FIG. 19", "description": "Metabolic Activity Assay. Cells were prepared as previously described. The specific metabolic dye was added and mixed into the cell suspension. This plate was then placed into the 37° incubator for a 20-minute incubation. After incubation, the cells were centrifuged at 300×g for 5 minutes, and the supernatant was removed. The cells were then washed once with PBS/2.5% FBS and transferred into flow cytometric tubes containing 500 μL of PBS/2.5% FBS for analysis.\n5-(and -6)-Chloromethyl-2′,7′-dichlorodihydrofluorescein diacetate (CMH2DCFDA) (Molecular Probes). One vial of DCFda provides 10 tests and contains 50 μg. This is unstable and can't be stored. Therefore, each vial was opened and 43 μL of DMSO was added. […]\nas §2, with “Dot plots are shown in FIG. 15 as functions of live versus dead cells. Each dot on the dot plot represents one cell.” left out\nB16F1 melanoma cells of Example 12 were untreated or treated with etomoxir at the indicated concentrations for 48 hours. Cells were harvested, stained with DCFDA as described in Materials and Methods, and analyzed by flow cytometry. The value of DCFDA was then calculated as described in Materials and Methods."}}, "data": [{"smiles": "CCOC(=O)C1(CCCCCCOc2ccc(Cl)cc2)CO1", "note": "(centres unmarked) [etomoxir, 2-(6-(4-chlorophenoxy)-hexyl)-oxirane-2-carboxylic acid ethyl ester]", "values": [{"measurement": "cell surface UCP2 expression in the live cells", "setting": "[1]", "result": "time dependent “fold” increases"}, {"measurement": "mitochondrial membrane potential (MitoTracker)", "setting": "L1210 DDP cells", "result": "increase the mitochondrial membrane potential"}, {"measurement": "cell surface Fas expression", "setting": "B16F1 melanoma cells [2]; B16F1 dead cell population, FIG. 18", "result": "dose dependent increase in cell surface Fas expression"}, {"measurement": "cell surface Fas expression", "setting": "B16F1 melanoma cells [2]; B16F1 live cell population, FIG. 17", "result": "dose dependent increase in cell surface Fas expression"}, {"measurement": "reactive oxygen species as measured by DCFDA", "setting": "B16F1 melanoma cells [3]", "result": "dose dependent increase"}]}]}
